From patent US6500800B1, “Composition and method for causing photodynamic damage to target cells” (priority 1996, dated 2002)
Where two headings read alike, the source gives them in different places.

Tested on: Human hepatoma PLC/PRF/5 cells
Assay: Photodynamic damage (PDD), survival rate of cells versus concentration after irradiation
Assay type: cell-based
Excerpt: A stands for (P10)-insulin-(chlorin e6); B stands for (β-galactosidase)-insulin-(chlorin e6); C stands for chlorin e6; […] Survival rate of human hepatoma PLC/PRF/5 cells plotted against concentration of compositions and chlorin e6 is depicted in FIGS. 2 and 3.

## C=Cc1c(C)c2cc3nc(c(CC(=O)O)c4[nH]c(cc5nc(cc1[nH]2)C(C)=C5CC)c(C)c4C(=O)O)[C@@H](CCC(=O)O)[C@@H]3C [chlorin e6]
Irradiation dose of 12.3 kJ/m^2, read-out: EC50 value (concentration of a semi-maximal effect)
  EC50: 11.5 µM
Irradiation dose of 96 kJ/m^2, read-out: EC50 value
  EC50: 0.35 µM
